This assay concerns the target T1, Interleukin-1 receptor-associated kinase 4 (Homo sapiens, UniProt Q9NWZ3).
T1 sequence (Q9NWZ3 whole entry): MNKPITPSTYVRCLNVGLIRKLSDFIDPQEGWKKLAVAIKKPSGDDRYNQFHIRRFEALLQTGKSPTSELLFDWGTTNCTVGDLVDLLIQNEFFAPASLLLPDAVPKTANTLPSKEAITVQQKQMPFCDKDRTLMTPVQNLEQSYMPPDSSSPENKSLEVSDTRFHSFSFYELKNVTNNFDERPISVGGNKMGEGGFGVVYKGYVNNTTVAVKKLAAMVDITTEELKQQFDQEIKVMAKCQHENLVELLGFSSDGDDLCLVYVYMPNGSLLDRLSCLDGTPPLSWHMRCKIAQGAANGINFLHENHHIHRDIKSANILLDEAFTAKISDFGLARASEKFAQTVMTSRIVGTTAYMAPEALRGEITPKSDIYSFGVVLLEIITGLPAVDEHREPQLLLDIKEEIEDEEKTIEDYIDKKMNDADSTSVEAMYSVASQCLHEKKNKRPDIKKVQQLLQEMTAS
In words: IRAK4 Kinase Inhibition Assay. The protocol: In this assay, Cisbio HTRF KinEASE-STK SI kit (62S 1 PEB) was used, in which assay/detection buffer, STK Substrate 1-biotin, Streptavidin-XL665, STK Antibody-Cryptate were contained. After adding compound/DMSO to a 384-well plate (PerkinElmer 6008280) using Echo 665, 5 μL of 2-fold reaction concentration of IRAK4 kinase protein (final concentration: 10 nM) dissolved with assay buffer [1 volume of 5× kinase buffer+20 mM magnesium chloride (Sigma) solution+1 mM DTT (Alfa Aesar) solution+4 volumes deionized water] was added, followed by sealing the shallow well plate, shaking and then centrifuging at 1000 rpm for 1 min, and incubating at room temperature for 5 min; then 5 μL of 2-fold reaction concentration of a 1:1 mixture of STK Substrate 1-biotin (final concentration: 1 μM) and ATP (Sigma A1852) (final concentration: 200 μM) formulated with assay buffer was added, followed by sealing the shallow well plate, shaking and then centrifuging at 1000 rpm for 1 min, and incubating at 37° C. for 2 h, and then 10 μL of a 1:1 mixture of Streptavidin-XL665 (final concentration: 62.5 nM) and STK-antibody-cryptate dissolved with detection buffer was added, followed by sealing the shallow well plate, shaking and then centrifuging at 1000 rpm for 1 min, and incubating at room temperature for 1 h, and thereafter reading the value at the wavelength of 620 nm/665 nm using a microplate reader.

In the case of `OCC1CCC(n2cc(-n3cc(-c4cnn5ccc(C6CCOC6)nc45)nn3)c(C(F)F)n2)CC1` (stereo unspecified) [US20260028337, Compound 98A], the IC50 (usually the concentration that gives 50% inhibition) was less than 100 nM.

These data come from BindingDB's records for patent US20260028337 (Shenzhen Zhongge Biological Technology, 2026).
